This passage reports IC50 results from article PMC9768205, “Pharmacological targeting of the mitochondrial calcium-dependent potassium channel KCa3.1 triggers cell death and reduces tumor growth and metastasis in vivo” (Cell Death & Disease, 2022).

The target in this assay is T1, KCa3.1 (Homo sapiens, UniProt O15554).
T1 construct: gene KCNN4
Description: whole-cell perforated patch clamp, block of DC-EBIO/ionomycin-activated current. Format: cell-based.

The structures appear in SMILES notation.

In general, IC50 refers to the concentration that gives 50% inhibition.

T1 sequence (O15554 whole entry): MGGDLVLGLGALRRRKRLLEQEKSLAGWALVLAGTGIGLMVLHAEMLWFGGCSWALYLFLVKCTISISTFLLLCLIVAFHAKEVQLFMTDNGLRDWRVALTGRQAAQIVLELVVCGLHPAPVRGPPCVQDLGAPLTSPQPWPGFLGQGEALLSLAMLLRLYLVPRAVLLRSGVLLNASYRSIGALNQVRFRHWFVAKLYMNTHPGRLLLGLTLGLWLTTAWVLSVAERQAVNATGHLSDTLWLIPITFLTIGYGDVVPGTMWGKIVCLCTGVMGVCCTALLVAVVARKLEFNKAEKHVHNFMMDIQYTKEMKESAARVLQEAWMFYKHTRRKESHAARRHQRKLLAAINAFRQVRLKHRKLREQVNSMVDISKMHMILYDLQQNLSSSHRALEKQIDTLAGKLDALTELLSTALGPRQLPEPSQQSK

With `Clc1ccccc1C(c1ccccc1)(c1ccc(CCC[P+](c2ccccc2)(c2ccccc2)c2ccccc2)cc1)n1cccn1` (stereo not shown) [mitoTRAM-34, (3-(4-((2-chlorophenyl)(phenyl)(1H-pyrazol-1yl)methyl)phenyl)propyl)triphenylphosphonium iodide], the IC50 is approximately 2000 nM.
